The assay concerns the target PRMT5/MEP50 (Homo sapiens (Human), UniProt O14744). Put plainly: PRMT5 Biochemical Assay (PRMT5/MEP50 enzyme assay on peptide substrate, 3H-SAM Flashplate). As to conditions: PRMT5/MEP50 biochemical assay; read-out: Biochemical IC50.
PRMT5/MEP50, sequence (O14744 other isoform, or with tags, fused parts or gaps): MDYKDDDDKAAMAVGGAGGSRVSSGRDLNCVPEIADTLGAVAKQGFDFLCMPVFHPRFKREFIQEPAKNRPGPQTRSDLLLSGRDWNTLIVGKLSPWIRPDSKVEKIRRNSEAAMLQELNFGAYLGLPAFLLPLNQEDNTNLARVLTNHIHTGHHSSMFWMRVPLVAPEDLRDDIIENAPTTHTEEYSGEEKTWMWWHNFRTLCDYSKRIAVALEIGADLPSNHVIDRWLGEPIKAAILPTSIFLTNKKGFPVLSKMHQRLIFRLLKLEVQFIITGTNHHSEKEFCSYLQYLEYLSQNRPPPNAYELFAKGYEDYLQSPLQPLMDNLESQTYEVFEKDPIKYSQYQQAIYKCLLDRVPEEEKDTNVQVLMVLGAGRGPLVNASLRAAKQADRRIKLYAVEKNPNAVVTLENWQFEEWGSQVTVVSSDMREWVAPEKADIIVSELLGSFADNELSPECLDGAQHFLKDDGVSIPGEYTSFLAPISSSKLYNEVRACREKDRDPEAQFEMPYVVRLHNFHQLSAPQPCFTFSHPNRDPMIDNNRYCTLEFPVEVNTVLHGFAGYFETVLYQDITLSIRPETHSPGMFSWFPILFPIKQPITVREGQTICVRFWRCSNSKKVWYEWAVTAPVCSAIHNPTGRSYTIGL
PRMT5/MEP50, sequence (Q9BQA1 other isoform, or with tags, fused parts or gaps partner): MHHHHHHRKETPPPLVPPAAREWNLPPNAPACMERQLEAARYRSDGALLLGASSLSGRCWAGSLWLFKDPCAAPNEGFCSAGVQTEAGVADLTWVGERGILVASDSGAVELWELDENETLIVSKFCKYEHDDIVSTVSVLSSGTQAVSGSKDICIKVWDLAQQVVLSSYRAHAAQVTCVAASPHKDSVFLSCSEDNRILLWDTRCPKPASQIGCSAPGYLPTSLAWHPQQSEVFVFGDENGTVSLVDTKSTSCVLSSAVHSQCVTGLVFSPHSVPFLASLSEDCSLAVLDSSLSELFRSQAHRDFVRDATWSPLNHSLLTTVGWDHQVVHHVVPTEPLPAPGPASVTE
The IC50 is the concentration that gives 50% inhibition. As to `O=C(NC[C@@H](O)CN1CCc2ccccc2C1)c1cccc(OC2CCOCC2)c1` [Compound 83], the concentration for half-maximal inhibition (IC50) was in the range of 101 to 1000 nM.

For `O=C(NCC(O)CN1CCc2ccccc2C1)c1cccc(-n2cncn2)c1` (stereo not shown) [Compound 130], the IC50 is below 100 nM.

In the case of `CS(=O)(=O)N1CCC(Nc2ccc(C(=O)NCC(O)CN3CCc4ccccc4C3)cc2)CC1` (stereo not shown) [Compound 141], the IC50 is below 100 nM.

Take `O=C(NC[C@H](O)CN1CCc2ccccc2C1)c1cc(NC2CN(CC(F)(F)F)C2)ncn1` [Compound 282]: the IC50 is below 100 nM.

`O=C(NCC(O)CN1CCc2ccccc2C1)c1cc(NC2CCOCC2)n[nH]1` (stereo not shown) [Compound 169]: the IC50 was below 100 nM.

`CN1CCC(CNc2cc(C(=O)NC[C@H](O)CN3CCc4ccccc4C3)ccn2)CC1` [Compound 292]: the half-inhibitory concentration (IC50) is below 100 nM.

Consider `O=C(NCC(O)CN1CCc2ccccc2C1)c1cccc(N2CCNCC2)c1` (stereo not shown) [Compound 35, N-(3-(3,4-dihydroisoquinolin-2(1H)-yl)-2-hydroxypropyl)-3-(piperazin-1-yl)benzamide], for which the IC50 was below 100 nM.

As for `CS(=O)(=O)N1CCC(Nc2cc(C(=O)NC[C@H](O)CN3CCc4ccccc4C3)ncn2)C1` (stereo partly shown) [Compound 257], the concentration for half-maximal inhibition (IC50) is below 100 nM.

On to `O=C(NC[C@H](O)CN1CCc2ccccc2C1)c1ccnc(NC2CCN(CC(F)(F)F)C2)c1` (stereo partly shown) [Compound 226], for which the IC50 is below 100 nM.

Regarding `O=C(NCC(O)CN1CCc2ccccc2C1)c1ccc(-c2ccccn2)cc1` (stereo not shown) [Compound 13, N-(3-(3,4-dihydroisoquinolin-2(1H)-yl)-2-hydroxypropyl)-4-(pyridin-2-yl)benzamide], the concentration for half-maximal inhibition (IC50) is below 100 nM.

Regarding `O=C(NC[C@H](O)CN1CCc2ccccc2C1)c1cccc(NC2CCOCC2)c1` [Compound 44, (S)—N-(3-(3,4-dihydroisoquinolin-2(1H)-yl)-2-hydroxypropyl)-3-((tetrahydro-2H-pyran-4-yl)amino)benzamide], the IC50 is below 100 nM.

Turning to `CS(=O)(=O)N1CCC(Nc2cc(C(=O)NC[C@H](O)CN3CCc4ccccc4C3)ccn2)CC1` [Compound 225], the IC50 was below 100 nM.

With `O=C(NCC(O)CN1CCc2ccccc2C1)c1ccc(F)c(NC2CCOCC2)c1` (stereo not shown) [Compound 65], the IC50 is below 100 nM.

Regarding `O=C(NCC(O)CN1CCc2ccccc2C1)c1cccc(N2CCOCC2)c1` (stereo not shown) [Compound 14, N-(3-(3,4-dihydroisoquinolin-2(1H)-yl)-2-hydroxypropyl)-3-morpholinobenzamide], the IC50 is below 100 nM.

On to `O=C(NC[C@@H](O)CN1CCc2ccccc2C1)Oc1ccccc1` [Compound 11, (R)-phenyl (3-(3,4-dihydroisoquinolin-2(1H)-yl)-2-hydroxypropyl)carbamate], for which the IC50 was below 100 nM.

With `O=C(NC[C@H](O)CN1CCc2ccccc2C1)c1cc(OC2CCOCC2)ncn1` [Compound 256], the IC50 was below 100 nM.

As to `O=C(NC[C@H](O)CN1CCc2ccccc2C1)c1ccc(OC2CCN(Cc3ccncc3)CC2)cc1` [Compound 331], the IC50 was below 100 nM.

For the compound `CN(C)CCOc1cccc(C(=O)NCC(O)CN2CCc3ccccc3C2)c1` (stereo not shown) [Compound 28, N-(3-(3,4-dihydroisoquinolin-2(1H)-yl)-2-hydroxypropyl)-3-(2-(dimethylamino)ethoxy)benzamide], the IC50 is below 100 nM.

In the case of `CN1CCC(Oc2cncc(C(=O)NC[C@H](O)CN3CCc4ccccc4C3)c2)CC1` [Compound 288], the half-maximal inhibitory concentration (IC50) was below 100 nM.

As to `O=C(NCC(O)CN1CCc2ccccc2C1)c1ccc(CN2CCNCC2)cc1` (stereo not shown) [Compound 143], the IC50 was below 100 nM.

Consider `O=C(NCC(O)CN1CCc2ccccc2C1)c1cccc(NC2CCOCC2)n1` (stereo not shown) [Compound 73], for which the IC50 is below 100 nM.

Turning to `O=C(NCC(O)CN1CCc2ccccc2C1)c1cccc(OC2CCNC2)c1` (stereo not shown) [Compound 119], the IC50 was below 100 nM.

On to `O=C(NCC(O)CN1CCc2ccccc2C1)c1cncc(NC2CCOCC2)c1` (stereo not shown) [Compound 54, N-(3-(3,4-dihydroisoquinolin-2(1H)-yl)-2-hydroxypropyl)-5-((tetrahydro-2H-pyran-4-yl)amino)nicotinamide], for which the IC50 was below 100 nM.

In the case of `O=C(NCC(O)CN1CCc2ccccc2C1)c1ccc(NC2CCOC2)cc1` (stereo not shown) [Compound 129], the IC50 was below 100 nM.

Regarding `O=C(NC[C@H](O)CN1CCc2ccccc2C1)c1ccnc(OC2CCOCC2)c1` [Compound 323], the IC50 is below 100 nM.

For the compound `O=C(NC[C@H](O)CN1CCc2ccccc2C1)c1cncc(NC2COC2)c1` [Compound 299], the concentration for half-maximal inhibition (IC50) is below 100 nM.

In the case of `COc1ccc2cc(C(=O)NCC(O)CN3CCc4ccccc4C3)ccc2n1` (stereo not shown) [Compound 155], the IC50 fell in the range of 101 to 1000 nM.

As to `O=C(NC[C@H](O)CN1CCc2ccccc2C1)c1cc(NC2CCNC2)ncn1` (stereo partly shown) [Compound 209], the half-inhibitory concentration (IC50) is below 100 nM.

With `O=C(NC[C@H](O)CN1CCc2ccccc2C1)c1ccnc(NCc2ccccn2)c1` [Compound 191], the half-maximal inhibitory concentration (IC50) was below 100 nM.

Turning to `Cn1nccc1-c1cccc(C(=O)NCC(O)CN2CCc3ccccc3C2)c1` (stereo not shown) [Compound 2, N-(3-(3,4-dihydroisoquinolin-2(1H)-yl)-2-hydroxypropyl)-3-(1-methyl-1H-pyrazol-5-yl)benzamide], the 50% inhibitory concentration (IC50) was below 100 nM.

In the case of `CN1CCN(Cc2cccc(C(=O)NCC(O)CN3CCc4ccccc4C3)c2)C(CO)C1` (stereo not shown) [Compound 115], the IC50 is below 100 nM.

As to `CNC(=O)CNCc1cccc(C(=O)NCC(O)CN2CCc3ccccc3C2)c1` (stereo not shown) [Compound 117], the concentration for half-maximal inhibition (IC50) lay in the range of 101 to 1000 nM.

On to `CN(CCOc1cccc(C(=O)NCC(O)CN2CCc3ccccc3C2)c1)CC(N)=O` (stereo not shown) [Compound 277], for which the IC50 is below 100 nM.

As for `O=C(NCC(O)CN1CCc2ccccc2C1)c1cccc(NC2CCOC2)c1` (stereo not shown) [Compound 45, N-(3-(3,4-dihydroisoquinolin-2(1H)-yl)-2-hydroxypropyl)-3-((tetrahydrofuran-3-yl)amino)benzamide], the concentration for half-maximal inhibition (IC50) is below 100 nM.

For the compound `C[C@H]1COCCC1Nc1cccc(C(=O)NC[C@H](O)CN2CCc3ccccc3C2)c1` (stereo partly shown) [Compound 213], the IC50 was below 100 nM.

Consider `O=C(NCC(O)CN1CCc2ccccc2C1)c1cccc(N2CCS(=O)(=O)CC2)c1` (stereo not shown) [Compound 164], for which the concentration for half-maximal inhibition (IC50) was below 100 nM.

As to `O=C(NC[C@H](O)CN1CCc2ccccc2C1)c1cccc(OC2CCOCC2)c1` [Compound 82], the half-maximal inhibitory concentration (IC50) was below 100 nM.

On to `O=C(NC[C@H](O)CN1CCc2ccccc2C1)c1cccc(NC2CCN(CC(F)(F)F)CC2)c1` [Compound 217], for which the IC50 was below 100 nM.

On to `CS(=O)(=O)Nc1cccc(C(=O)NCC(O)CN2CCc3ccccc3C2)c1` (stereo not shown) [Compound 24], for which the IC50 is below 100 nM.

As for `O=C(NCC(O)CN1CCc2ccccc2C1)c1cccc(NC2CCN(CC(F)(F)F)CC2)c1` (stereo not shown) [Compound 126], the concentration for half-maximal inhibition (IC50) was below 100 nM.

For the compound `O=C(NC[C@H](O)CN1CCc2ccccc2C1)c1ccnc(NCC2CCNCC2)c1` [Compound 235], the IC50 was below 100 nM.

Turning to `O=C(NC[C@H](O)CN1CCc2ccccc2C1)c1ccc2c(c1O)NCCC2` [Compound 328], the IC50 is 1000 to 10000 nM.

With `CS(=O)(=O)N1CCC(Oc2ccc(C(=O)NCC(O)CN3CCc4ccccc4C3)cc2)C1` (stereo not shown) [Compound 198], the IC50 is below 100 nM.

`CN(C)CCOc1cc(C(=O)NC[C@H](O)CN2CCc3ccccc3C2)ccn1` [Compound 234]: the half-inhibitory concentration (IC50) was below 100 nM.

For `O=C(NCC(O)CN1CCc2ccccc2C1)c1cccc(C2CCNC2)c1` (stereo not shown) [Compound 37], the concentration for half-maximal inhibition (IC50) is below 100 nM.

As to `O=C(NCC(O)CN1CCc2ccccc2C1)c1nccc(NC2CCOCC2)n1` (stereo not shown) [Compound 76], the 50% inhibitory concentration (IC50) is 101 to 1000 nM.

For the compound `CS(=O)(=O)N1CCC(Oc2cc(C(=O)NC[C@H](O)CN3CCc4ccccc4C3)ncn2)CC1` [Compound 286], the IC50 is below 100 nM.

Regarding `CN1CCCC1c1cccc(C(=O)NCC(O)CN2CCc3ccccc3C2)c1` (stereo not shown) [Compound 34, N-(3-(3,4-dihydroisoquinolin-2(1H)-yl)-2-hydroxypropyl)-3-(1-methylpyrrolidin-2-yl) benzamide], the 50% inhibitory concentration (IC50) is below 100 nM.

`O=C(NCC(O)CN1CCc2ccccc2C1)c1ccc(-n2cncn2)cc1` (stereo not shown) [Compound 110]: the IC50 was below 100 nM.

With `O=C(NCC(O)CN1CCc2ccccc2C1)c1cccc(CC2CCOCC2)c1` (stereo not shown) [Compound 59], the half-inhibitory concentration (IC50) is below 100 nM.

For the compound `O=C(NCC(O)CN1CCc2ccccc2C1)c1cccc(NCCCO)c1` (stereo not shown) [Compound 87], the 50% inhibitory concentration (IC50) was 1000 to 10000 nM.

Turning to `O=C(NCC(O)CN1CCc2ccccc2C1)c1cccc(-c2ccncc2)c1` (stereo not shown) [Compound 9, N-(3-(3,4-dihydroisoquinolin-2(1H)-yl)-2-hydroxypropyl)-3-(pyridin-4-yl)benzamide], the IC50 is below 100 nM.

`CN1CCN(Cc2cccc(C(=O)NCC(O)CN3CCc4ccccc4C3)c2)CC1CO` (stereo not shown) [Compound 253]: the half-inhibitory concentration (IC50) is below 100 nM.

With `CN1CC(Nc2cc(C(=O)NC[C@H](O)CN3CCc4ccccc4C3)ncn2)C1` [Compound 281], the IC50 was below 100 nM.

Regarding `CC(=O)N1CCC(Nc2ccc(C(=O)NCC(O)CN3CCc4ccccc4C3)cc2)CC1` (stereo not shown) [Compound 127], the IC50 was below 100 nM.

In the case of `O=C(NC[C@H](O)CN1CCc2ccccc2C1)c1cncc(NC2CCN(CC(F)(F)F)C2)c1` (stereo partly shown) [Compound 303], the concentration for half-maximal inhibition (IC50) is below 100 nM.

In the case of `O=C(NC[C@H](O)CN1CCc2ccccc2C1)c1ccnc(NC2CCCCC2)c1` [Compound 335], the IC50 was below 100 nM.

`O=C(NCC(O)CN1CCc2ccccc2C1)c1ccc(OC2CCNC2)cc1` (stereo not shown) [Compound 176]: the IC50 was below 100 nM.

`O=C(NCC(O)CN1CCc2ccccc2C1)c1cccc(-c2ccccn2)c1` (stereo not shown) [Compound 1, N-(3-(3,4-dihydroisoquinolin-2(1H)-yl)-2-hydroxypropyl)-3-(pyridin-2-yl)benzamide]: the 50% inhibitory concentration (IC50) is below 100 nM.

With `O=C(NC[C@H](O)CN1CCc2ccccc2C1)c1ccc2c(c1)CCO2` [Compound 243], the IC50 was below 100 nM.

On to `O=C(NC[C@H](O)CN1CCc2ccccc2C1)c1cc(NC2CCN(CC(F)(F)F)C2)ncn1` (stereo partly shown) [Compound 182], for which the IC50 is below 100 nM.

As to `O=C(NC[C@H](O)CN1CCc2ccccc2C1)c1cc(NC2CCOCC2)ncn1` [Compound 193], the concentration for half-maximal inhibition (IC50) is below 100 nM.

For `Cn1nc(C(=O)NCC(O)CN2CCc3ccccc3C2)cc1NC1CCOCC1` (stereo not shown) [Compound 312], the half-maximal inhibitory concentration (IC50) lay in the range of 101 to 1000 nM.

For `CN1CCC(Oc2cc(C(=O)NC[C@H](O)CN3CCc4ccccc4C3)ccn2)CC1` [Compound 202], the IC50 was below 100 nM.
